Measurements published in patent US8232305B2, “Anti-microbial compositions” (BASF SE, priority 2006, dated 2012).

Columns and labels:
Format in all cases: cell-based
Escherichia coli = test: Microbicidal activity according to EN1040; settings: 1000 ppm, room temperature, vs growth control in water
Method: (§1) A bacterial suspension with a cell count of about 10^7 cfu/ml is contacted with appropriate concentrations of the specific substances and the residual cell count determined after incubation times of 5 and 30 minutes at room temperature under continuous stirring. Staphylococcus aureus was tested as gram+ and Escherichia coli as gram− organism. The results are given as a log reduction in comparison to a growth control in water.

Staphylococcus aureus = test: Microbicidal activity according to EN1040; settings: 1000 ppm, room temperature, vs growth control in water
Method: as §1

C. albicans = test: Preservative challenge test in cosmetic emulsions (EurPh and USP); settings: 0.5% w/w
Method: (§2) A preservative challenge test is conducted for representative cosmetic formulations according to the conditions of the EurPh and USP. The compound concentration in the formulations is 0.5% w/w. The Inoculum concentration of the five different strains is 2.1-4.2×10^5 cfu/ml, incubation time according to EurPh. 2, 7, 14 and 28 days. Preservation is investigated in two different emulsion types, w/o and o/w.

S. aureus = test: as above; settings: 0.5% w/w
Method: as §2

E. coli = test: as above; settings: 0.5% w/w
Method: as §2

P. aerug. = test: as above; settings: 0.5% w/w
Method: as §2

A. niger = test: as above; settings: 0.5% w/w
Method: as §2

Aspergillus niger = test: Fungicidal activity according to EN12175; settings: spores about 10^6 cfu/ml, vs water control; for log reduction A. niger 30 min: 1%
Method: (§3) Fungicidal activity is tested according to EN12175. A fungal spore suspension with a spore cell count of about 10^6 cfu/ml is contacted with appropriate concentrations of the specific substances and the residual spore cell count determined after incubation times of 30 and 60 minutes at room temperature under continuous stirring. Penicillium funiculosum, Aspergillus niger and Aureobasidium pullulans are tested as important mold strains. The results are given as a log reduction at each incubation time in comparison to a water control.

Penicillium funiculosum = test: Fungicidal activity according to EN12175; settings: spores about 10^6 cfu/ml, vs water control; for log reduction P. funiculosum 30 min: 1%
Method: as §3

Aureobasidium pullulans = test: Fungicidal activity according to EN12175; settings: spores about 10^6 cfu/ml, vs water control; for log reduction A. pullulans 30 min: 1%
Method: as §3

A. niger ATCC 16404 = test: Microbicidal activity under conditions similar to a preservative challenge test; settings: 0.5%, inoculum 10^5 cfu/ml
Method: as §1
(§4) The test procedure of Example 7 is used, with an inoculum concentration of 10^5 cfu/ml and incubation times of 48 and 72 hours; figures given as log reduction.

C. albicans ATCC 10231 = test: as above; settings: 0.5%, inoculum 10^5 cfu/ml
Method: as §1, §4

P. aeruginosa ATCC 15442 = test: as above; settings: 0.5%, inoculum 10^5 cfu/ml
Method: as §1, §4

E. coli ATCC 10536 = test: as above; settings: 0.5%, inoculum 10^5 cfu/ml
Method: as §1, §4

S. aureus ATCC 6538 = test: as above; settings: 0.5%, inoculum 10^5 cfu/ml
Method: as §1, §4

CCCCCCCCOC(=O)C[n+]1ccn(C)c1.[Br-] [Ex 2, 1-methyl-3-(2-oxo-2-octyloxyethyl)-1H-Imidazolium bromide]
log reduction E. coli 5 min. (Escherichia coli): <1 log | log reduction E. coli 30 min. (Escherichia coli): 1.2 log | log reduction S. aureus 5 min. (Staphylococcus aureus): 3.2 log | log reduction S. aureus 30 min. (Staphylococcus aureus): 3.7 log | Log Reduction C. albicans (C. albicans; O/W emulsion, 2 days): 0 log | Log Reduction C. albicans (C. albicans; O/W emulsion, 7 days): 2 log | Log Reduction C. albicans (C. albicans; O/W emulsion, 14 days): ≧3 log | Log Reduction C. albicans (C. albicans; O/W emulsion, 28 days): 5 log | Log Reduction C. albicans (C. albicans; W/O emulsion, 2 days): 1 log | Log Reduction C. albicans (C. albicans; W/O emulsion, 7 days): ≧3 log | Log Reduction C. albicans (C. albicans; W/O emulsion, 14 days): 5 log | Log Reduction C. albicans (C. albicans; W/O emulsion, 28 days): 5 log | Log Reduction S. aureus (S. aureus; O/W emulsion, 2 days): ≧4 log | Log Reduction S. aureus (S. aureus; O/W emulsion, 7 days): 6 log | Log Reduction S. aureus (S. aureus; O/W emulsion, 14 days): 6 log | Log Reduction S. aureus (S. aureus; O/W emulsion, 28 days): 6 log | Log Reduction S. aureus (S. aureus; W/O emulsion, 2 days): 6 log | Log Reduction S. aureus (S. aureus; W/O emulsion, 7 days): 6 log | Log Reduction S. aureus (S. aureus; W/O emulsion, 14 days): 6 log | Log Reduction S. aureus (S. aureus; W/O emulsion, 28 days): 6 log | Log Reduction E. coli (E. coli; O/W emulsion, 2 days): 3 log | Log Reduction E. coli (E. coli; O/W emulsion, 7 days): ≧4 log | Log Reduction E. coli (E. coli; O/W emulsion, 14 days): 6 log | Log Reduction E. coli (E. coli; O/W emulsion, 28 days): 6 log | Log Reduction E. coli (E. coli; W/O emulsion, 2 days): 6 log | Log Reduction E. coli (E. coli; W/O emulsion, 7 days): 6 log | Log Reduction E. coli (E. coli; W/O emulsion, 14 days): 6 log | Log Reduction E. coli (E. coli; W/O emulsion, 28 days): 6 log | Log Reduction P. aerug. (P. aerug.; O/W emulsion, 2 days): ≧4 log | Log Reduction P. aerug. (P. aerug.; O/W emulsion, 7 days): 5 log | Log Reduction P. aerug. (P. aerug.; O/W emulsion, 14 days): 5 log | Log Reduction P. aerug. (P. aerug.; O/W emulsion, 28 days): 5 log | Log Reduction P. aerug. (P. aerug.; W/O emulsion, 2 days): 5 log | Log Reduction P. aerug. (P. aerug.; W/O emulsion, 7 days): 5 log | Log Reduction P. aerug. (P. aerug.; W/O emulsion, 14 days): 5 log | Log Reduction P. aerug. (P. aerug.; W/O emulsion, 28 days): 5 log | Log Reduction A. niger (A. niger; O/W emulsion, 2 days): 0 log | Log Reduction A. niger (A. niger; O/W emulsion, 7 days): 0 log | Log Reduction A. niger (A. niger; O/W emulsion, 14 days): 0 log | Log Reduction A. niger (A. niger; O/W emulsion, 28 days): 0 log | Log Reduction A. niger (A. niger; W/O emulsion, 2 days): 0 log | Log Reduction A. niger (A. niger; W/O emulsion, 7 days): 0 log | Log Reduction A. niger (A. niger; W/O emulsion, 14 days): 0 log | Log Reduction A. niger (A. niger; W/O emulsion, 28 days): 0 log | log reduction A. niger 30 min (Aspergillus niger): <1 log | log reduction A. niger 1 h (Aspergillus niger): 2.0 log | log reduction P. funiculosum 30 min (Penicillium funiculosum): <1 log | log reduction P. funiculosum 1 h (Penicillium funiculosum): <1 log | log reduction A. pullulans 30 min (Aureobasidium pullulans): >4 log | log reduction A. pullulans 1 h (Aureobasidium pullulans): >4 log | log reduction A. niger ATCC 16404 48 h (A. niger ATCC 16404): 1.8 log | log reduction A. niger ATCC 16404 72 h (A. niger ATCC 16404): 2.3 log | log reduction C. albicans ATCC 10231 48 h (C. albicans ATCC 10231): >3 log | log reduction C. albicans ATCC 10231 72 h (C. albicans ATCC 10231): >3 log | log reduction P. aeruginosa ATCC 15442 48 h (P. aeruginosa ATCC 15442): >3 log | log reduction P. aeruginosa ATCC 15442 72 h (P. aeruginosa ATCC 15442): >3 log | log reduction E. coli ATCC 10536 48 h (E. coli ATCC 10536): >3 log | log reduction E. coli ATCC 10536 72 h (E. coli ATCC 10536): >3 log | log reduction S. aureus ATCC 6538 48 h (S. aureus ATCC 6538): >3 log | log reduction S. aureus ATCC 6538 72 h (S. aureus ATCC 6538): >3 log

CCCCOC(=O)C[n+]1ccn(C)c1.[Br-] [Ex 3]
log reduction E. coli 5 min. (Escherichia coli): <1 log | log reduction E. coli 30 min. (Escherichia coli): <1 log | log reduction S. aureus 5 min. (Staphylococcus aureus): <1 log | log reduction S. aureus 30 min. (Staphylococcus aureus): <1 log | log reduction A. niger 30 min (Aspergillus niger): <1 log | log reduction A. niger 1 h (Aspergillus niger): <1 log | log reduction P. funiculosum 30 min (Penicillium funiculosum): <1 log | log reduction P. funiculosum 1 h (Penicillium funiculosum): <1 log | log reduction A. pullulans 30 min (Aureobasidium pullulans): <1 log | log reduction A. pullulans 1 h (Aureobasidium pullulans): <1 log | log reduction A. niger ATCC 16404 48 h (A. niger ATCC 16404): <1 log | log reduction A. niger ATCC 16404 72 h (A. niger ATCC 16404): <1 log | log reduction C. albicans ATCC 10231 48 h (C. albicans ATCC 10231): 1.4 log | log reduction C. albicans ATCC 10231 72 h (C. albicans ATCC 10231): 1.7 log | log reduction P. aeruginosa ATCC 15442 48 h (P. aeruginosa ATCC 15442): >3 log | log reduction P. aeruginosa ATCC 15442 72 h (P. aeruginosa ATCC 15442): >3 log | log reduction E. coli ATCC 10536 48 h (E. coli ATCC 10536): >3 log | log reduction E. coli ATCC 10536 72 h (E. coli ATCC 10536): >3 log | log reduction S. aureus ATCC 6538 48 h (S. aureus ATCC 6538): >3 log | log reduction S. aureus ATCC 6538 72 h (S. aureus ATCC 6538): >3 log
